Assay results reported in article PMC7761830, “Structure-Based Virtual Screening of Ultra-Large Library Yields Potent Antagonists for a Lipid GPCR” (Biomolecules, 2020).

What was measured:
wild-type CysLT1R = target: T1, wild-type CysLT1R (Homo sapiens, UniProt Q9Y271); assay: IP1 production assay, antagonist mode, co-stimulation with EC80 LTD4; assay type: cell-based; settings: for inhibition at 30 µM: HEK293, compound 30 µM, LTD4 at EC80, HEK293, wild-type CysLT1R, read-out: inhibition of LTD4-induced IP1 production, single-concentration screen; for Emax: HEK293, read-out: CysLT1R (LTD4) % Max Inhibition ± SEM; for extent of inhibition of LTD4-mediated response at CysLT1R (in words): antagonist mode, 1.5 to 100 µM
T1 construct: expressed in transfected cells; host or cells: HEK293 (ATCC CRL-1573), transient transfection with Lipofectamine 3000
T1 sequence (Q9Y271 1-337): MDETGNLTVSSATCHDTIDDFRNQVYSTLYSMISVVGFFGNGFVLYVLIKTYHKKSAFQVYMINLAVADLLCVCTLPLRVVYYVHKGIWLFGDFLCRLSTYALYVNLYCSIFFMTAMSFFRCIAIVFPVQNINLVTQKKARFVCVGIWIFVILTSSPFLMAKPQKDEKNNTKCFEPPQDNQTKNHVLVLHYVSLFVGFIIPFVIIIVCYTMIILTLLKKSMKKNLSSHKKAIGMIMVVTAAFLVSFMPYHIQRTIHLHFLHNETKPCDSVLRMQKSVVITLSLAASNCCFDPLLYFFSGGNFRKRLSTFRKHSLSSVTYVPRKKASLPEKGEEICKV
Experimental: (§1) For this assay, we used the Cisbio IP-One kit as previously described. […] At 48 h post-transfection, the media was removed and the cells were washed with fresh Hank’s Balanced Salt Solution (HBSS). […] After compound stimulation, the cells were incubated for 1 h at 37 °C and stimulated with IP1-D2 and Ab-Crypt reagents in Lysis Buffer. The cells were then incubated at room temperature for an additional hour. […] Normalized data were plotted using either the three-parameter or four-parameter EC50/IC50 fits of GraphPad Prism 8 (San Diego). […] Data represent the means ± SEM of at least three independent experiments performed in quadruplicate.

wild-type CysLT2R = target: T2, wild-type CysLT2R (Homo sapiens, UniProt Q9NS75); assay: as above; assay type: cell-based; settings: for inhibition at 30 µM: HEK293, compound 30 µM, LTD4 at EC80, HEK293, wild-type CysLT2R, read-out: inhibition of LTD4-induced IP1 production, single-concentration screen; for Emax: HEK293, read-out: CysLT2R (LTD4) % Max Inhibition ± SEM
T2 construct: expressed in transfected cells; host or cells: HEK293 (ATCC CRL-1573), transient transfection with Lipofectamine 3000
T2 sequence (Q9NS75 1-346): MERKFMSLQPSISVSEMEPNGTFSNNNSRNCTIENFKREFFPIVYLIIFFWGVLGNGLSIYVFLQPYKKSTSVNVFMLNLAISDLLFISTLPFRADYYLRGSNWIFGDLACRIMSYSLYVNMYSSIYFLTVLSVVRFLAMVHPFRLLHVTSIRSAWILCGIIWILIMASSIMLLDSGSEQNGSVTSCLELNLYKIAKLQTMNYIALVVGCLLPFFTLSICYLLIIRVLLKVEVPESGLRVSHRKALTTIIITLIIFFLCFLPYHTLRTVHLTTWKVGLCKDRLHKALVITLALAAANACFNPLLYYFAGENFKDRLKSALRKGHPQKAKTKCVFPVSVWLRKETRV
Experimental: as §1

Structure (SMILES)	remaining activity at 30 µM (wild-type CysLT1R)	remaining activity at 30 µM (wild-type CysLT2R)	also measured
CC1CC(C(=O)O)CN(C(=O)Nc2cccc(NC(=O)c3ccccc3)c2)C1 (stereo not drawn) [BRI-12308]	95.6%	101%	–
COc1ccc(C2=NN(C(=O)CCC(=O)O)C(c3cccs3)C2)c(O)c1 (stereo not drawn) [BRI-12316]	91%	90%	–
CNC(=O)c1cccc(NC(=O)CN2c3cccc4cccc(c34)S2(=O)=O)c1 [BRI-12322]	69.8%	79.1%	–
O=C(O)CSc1nc2ccccc2c2nc(CCc3ccccc3)nn12 [BRI-12314]	66.7%	96.9%	–
CC1=C(C(=O)Nc2ccccc2)C(c2ccncc2)n2nc(CCCO)nc2N1 (stereo not drawn) [BRI-12325]	76.1%	79.3%	–
O=C1COc2ccc(C(=O)Cn3cnc4sc5c(c4c3=O)CCC5)cc2N1 [BRI-12335]	73.8%	74.8%	–
O=C(O)c1c(F)cccc1NS(=O)(=O)N1CCc2ccccc2C1 [BRI-12304]	83.8%	106%	–
O=C(NC1CCCC1)c1ccc(NC(=O)C2C3C=CC(C3)C2C(=O)O)cc1 (stereo not drawn) [BRI-12321]	87.8%	95.1%	–
O=C(O)COc1ccc(C=Cc2ccc3cccc(O)c3n2)cc1 [BRI-12340]	70.2%	78.9%	–
O=C(O)CC(NC(=O)c1ccc(Cl)c(N2CCNC2=O)c1)c1ccccc1 (stereo not drawn) [BRI-12311]	77.5%	91%	–
CC(=O)c1cc2c(cc1NC(=O)COc1ccc(Cl)cc1C(N)=O)OCO2 [BRI-12343]	73.7%	88.9%	–
C[C@@H]1C[C@H](C(=O)Nc2cccc(NC(=O)c3cccs3)c2)O[C@H]1C(=O)O [BRI-12306]	81.2%	112%	–
O=C(O)CNC(=O)c1ccc(NS(=O)(=O)c2cccs2)cc1 [BRI-12323]	80.5%	100%	–
O=C(Nc1ccc2c(c1)COC2)N1CCCCC1c1cn[nH]c1 (stereo not drawn) [BRI-12312]	77.4%	87.2%	–
Cn1cc(S(=O)(=O)N[C@@H]2CC[C@H](C(=O)O)C2)cc1C(N)=O [BRI-12303]	77.9%	86.5%	–
O=C(Nc1ccccc1C(=O)N1CCN2C(=O)NC(=O)C2C1)c1cccs1 (stereo not drawn) [BRI-12307]	84.6%	110%	–
CC(C)c1c(C(=O)Nc2ccc3[nH]c(=O)[nH]c3c2)cnn1-c1ccccn1 [BRI-12339]	82%	99.8%	–
Cc1cccc(-n2nnc(C(=O)Nc3ccc4c(c3)NC(=O)CO4)c2C)c1 [BRI-12333]	77.5%	70.5%	–
O=C(O)CC(NC(=O)Cn1ncc2ccccc21)c1ccc(F)cc1 (stereo not drawn) [BRI-12305]	93.1%	109%	–
Cn1cc(C(N)=O)c(NC(=O)CCc2cccc(C(F)(F)F)c2)n1 [BRI-12327]	68.5%	73.4%	–

The next lines start with results.

remaining activity at 30 µM (wild-type CysLT1R)	remaining activity at 30 µM (wild-type CysLT2R)	Structure (SMILES)	also measured
75.3%	101%	O=C(CC1SC(c2cc3ccccc3oc2=O)=NC1=O)Nc1ccc(F)cc1 (stereo not drawn) [BRI-12345]	–
57.6%	62%	CCN(CC)C(=O)c1ccc(C(=O)OCc2cc(C(C)=O)no2)cc1 [BRI-12434]	–
72.3%	68%	O=C(O)CNS(=O)(=O)c1cccc(NC(=O)c2ccc(C3CCC3)cc2)c1 [BRI-12429]	–
84.2%	79.8%	Cc1onc(N)c1S(=O)(=O)Nc1ccc(N2CCCC2)cc1C(=O)O [BRI-12425]	–
77.6%	82.6%	CC(Sc1ccccc1C(=O)O)C(=O)N1CC(=O)Nc2ccccc21 (stereo not drawn) [BRI-12351]	–
67.5%	67.8%	O=C(O)CC1CN(S(=O)(=O)C=Cc2ccc(Cl)cc2)c2ccccc21 (stereo not drawn) [BRI-12449]	–
79.7%	104%	CC(Sc1nnc(-c2c[nH]c3ccccc23)n1C1CC1)C(=O)NC(N)=O (stereo not drawn) [BRI-12347]	–
68.4%	79.8%	Cc1cccc(-c2nnc(SCc3ccc(C(N)=O)cc3)n2CC(=O)O)c1 [BRI-12350]	–
79.8%	76.5%	Cc1ccnc(-c2ccc(NC(=O)COC(C)C)cc2)n1 [BRI-12422]	–
51.3%	40.9%	CCc1ncnc(N[C@H]2C[C@@H](CNC(=O)c3ccn4cc(C)nc4c3)C2)c1F [BRI-12458]	inhibition at 30 µM (wild-type CysLT1R): ≥ 50%; Emax (wild-type CysLT1R): 38 ± 16%; inhibition at 30 µM (wild-type CysLT2R): ≥ 50%; Emax (wild-type CysLT2R): 13 ± 10%
81%	58.6%	CCc1ccc(CN(C)S(=O)(=O)c2[nH]ncc2C(=O)O)cc1 [BRI-12470]	–
91.9%	80.5%	Cc1ccc(C(NS(=O)(=O)c2ccc(C(=O)NCC(=O)O)cc2)c2ccccn2)cc1 (stereo not drawn) [BRI-12437]	–
82.6%	57.3%	O=C(O)CC(CNS(=O)(=O)c1ccc(Oc2ccc(Cl)cc2)cc1)C(=O)O (stereo not drawn) [BRI-12421]	–
88.3%	49.5%	NC(=O)CNC(=O)c1ccc(CNC(=O)c2cc3ccc(F)cc3[nH]c2=O)cc1 [BRI-12453]	inhibition at 30 µM (wild-type CysLT2R): ≥ 50%; Emax (wild-type CysLT2R): 3 ± 7%
84.2%	71.1%	NC(=O)c1ncn(C2CCCN(c3nc(-c4ccccc4)cs3)C2)n1 (stereo not drawn) [BRI-12455]	–
58%	73.5%	CC(Sc1nc(Nc2ccccc2)c2ccccc2n1)C(=O)N1CCNC1=O (stereo not drawn) [BRI-12358]	–
83.8%	67.4%	O=C(O)c1cccc(NC(=O)c2ccc(N3CCNC3=O)cc2)c1 [BRI-12457]	–
86.5%	66.6%	O=C(O)CNC(=O)c1ccc(NC(=O)COCc2ccccc2)cc1 [BRI-12473]	–
79.5%	92.5%	CN(C(=O)c1ccc(C(=O)Nc2ccsc2C(N)=O)cc1)c1ccccc1 [BRI-12430]	–
55.9%	57.3%	Cc1cccc(COc2ccc(CNS(=O)(=O)N(C)CCC(=O)O)cc2)c1 [BRI-12411]	Ki (wild-type CysLT1R): 720 ± 160 nM; inhibition at 30 µM (wild-type CysLT1R): ≥ 50%; Emax (wild-type CysLT1R): 66 ± 18%; extent of inhibition of LTD4-mediated response at CysLT1R (in words) (wild-type CysLT1R): partial antagonism
95.9%	88.5%	Cc1nc2c(C(N)=O)cnn2c(C)c1CCC(=O)N(C)c1ccc2cc[nH]c2c1 [BRI-12448]	–
83.4%	96.8%	C=C1c2ccccc2C(=O)N1CCC(=O)Nc1cc(C(N)=O)cc(C(N)=O)c1 [BRI-12353]	–
79.6%	68.4%	CC(C)c1cc(C(=O)Nc2ccc(C(=O)NCC(=O)O)cc2)nn1C [BRI-12406]	–
89.7%	68.2%	CC(O)CN(C(=O)Nc1ccc2c(c1)CCCC2=O)C1CC1 (stereo not drawn) [BRI-12423]	–
83%	70.4%	CC(C)(C)CNC(=O)c1ccc(C(=O)Nc2ccccc2CC(=O)O)cc1 [BRI-12407]	–
89.1%	64.6%	COc1cccc(CC(=O)N[C@H]2[C@@H]3CC[C@@H](C3)[C@H]2C(=O)O)c1Cl [BRI-12468]	–
95.8%	66.4%	CCC(=O)Nc1ccc(S(=O)(=O)NC(C)(C)CC(=O)O)cc1 [BRI-12472]	–
45.2%	46.7%	NS(=O)(=O)c1cncc(-c2noc(CN(Cc3ccccc3)c3ccccc3)n2)c1 [BRI-12410]	Ki (wild-type CysLT1R): 590 ± 120 nM; inhibition at 30 µM (wild-type CysLT1R): ≥ 50%; Emax (wild-type CysLT1R): 64 ± 7%; extent of inhibition of LTD4-mediated response at CysLT1R (in words) (wild-type CysLT1R): partial antagonism; inhibition at 30 µM (wild-type CysLT2R): ≥ 50%; Emax (wild-type CysLT2R): 18 ± 9%
118%	106%	Cc1sc(NC(=O)C(C)(CC(=O)O)C2CCCCC2)c(C(N)=O)c1-c1ccccc1 (stereo not drawn) [BRI-12474]	–
